# Tested on: MV-4-11 cells
# Assay: Gene expression microarray analysis (Affymetrix PrimeView) and GSEA
# Format: cell-based, human
# Set-up: RFU PODN (11730768_x_at) / Fold change /veh PODN (11730768_x_at) / RFU LINC00158 (11744669_a_at) / Fold change /veh LINC00158 (11744669_a_at) / RFU DUSP10 (11751237_a_at) / Fold change /veh DUSP10 (11751237_a_at) / RFU ID3 (11757404_x_at) / Fold change /veh ID3 (11757404_x_at) / RFU PLEKHG5 (11737974_s_at) / Fold change /veh PLEKHG5 (11737974_s_at) / RFU LRRC4B (11730491_at) / Fold change /veh LRRC4B (11730491_at) / RFU GIMAP4 (11747438_a_at) / Fold change /veh GIMAP4 (11747438_a_at) / RFU KRT8 (11758183_x_at) / Fold change /veh KRT8 (11758183_x_at) / RFU CNN1 (11734310_a_at) / Fold change /veh CNN1 (11734310_a_at) / RFU VPS37D (11726825_at) / Fold change /veh VPS37D (11726825_at) / RFU C10orf10 (11716522_x_at) / Fold change /veh C10orf10 (11716522_x_at) / RFU KIR2DL2 /// KIR2DL4 /// KIR2DL5A /// KIR2DL5B /// KIR2DS1 /// KIR2DS2 /// KIR2DS3 /// KIR2DS4 /// KIR3DL3 /// KIR3DL3 /// KIR3DS1 (11738374_at) / Fold change /veh KIR2DL2 /// KIR2DL4 /// KIR2DL5A /// KIR2DL5B /// KIR2DS1 /// KIR2DS2 /// KIR2DS3 /// KIR2DS4 /// KIR3DL3 /// KIR3DL3 /// KIR3DS1 (11738374_at) / RFU C1QL1 (11718748_at) / Fold change /veh C1QL1 (11718748_at) / RFU TMPRSS4 (11747572_a_at) / Fold change /veh TMPRSS4 (11747572_a_at) / RFU HAMP (11756126_x_at) / Fold change /veh HAMP (11756126_x_at) / RFU RNFT2 (11725882_a_at) / Fold change /veh RNFT2 (11725882_a_at) / RFU NR4A2 (11747474_a_at) / Fold change /veh NR4A2 (11747474_a_at) / RFU ABCC12 (11746883_a_at) / Fold change /veh ABCC12 (11746883_a_at) / RFU TMEM136 (11760407_x_at) / Fold change /veh TMEM136 (11760407_x_at) / RFU CLDN22 /// WWC2 (11732394_at) / Fold change /veh CLDN22 /// WWC2 (11732394_at) / RFU HLA-DPB1 (11760878_x_at) / Fold change /veh HLA-DPB1 (11760878_x_at) / RFU SPINT1 (11716480_a_at) / Fold change /veh SPINT1 (11716480_a_at) / RFU GAP43 (11754022_s_at) / Fold change /veh GAP43 (11754022_s_at) / RFU A4GNT (11735810_at) / Fold change /veh A4GNT (11735810_at) / RFU PRB3 (11715151_x_at) / Fold change /veh PRB3 (11715151_x_at) / RFU TUBB4B (11761932_at) / Fold change /veh TUBB4B (11761932_at) / RFU CAPN14 (11732068_a_at) / Fold change /veh CAPN14 (11732068_a_at) / RFU TMCC2 (11721928_a_at) / Fold change /veh TMCC2 (11721928_a_at) / RFU IRGQ (11745062_a_at) / Fold change /veh IRGQ (11745062_a_at) / RFU FAM174B (11720279_a_at) / Fold change /veh FAM174B (11720279_a_at) / RFU TMPRSS4 (11748680_a_at) / Fold change /veh TMPRSS4 (11748680_a_at) / RFU FAM212B (11763350_a_at) / Fold change /veh FAM212B (11763350_a_at) / RFU PLEKHG5 (11743358_a_at) / Fold change /veh PLEKHG5 (11743358_a_at) / RFU ZSCAN30 (11745921_a_at) / Fold change /veh ZSCAN30 (11745921_a_at) / RFU CMKLR1 (11741424_a_at) / Fold change /veh CMKLR1 (11741424_a_at) / RFU LOC101060620 /// MAPK8IP1 (11723275_at) / Fold change /veh LOC101060620 /// MAPK8IP1 (11723275_at) / RFU SPTSSB (11747773_x_at) / Fold change /veh SPTSSB (11747773_x_at) / RFU PRSS12 (11739890_at) / Fold change /veh PRSS12 (11739890_at) / RFU BIN1 (11741810_x_at) / Fold change /veh BIN1 (11741810_x_at) / RFU WNT11 (11732464_a_at) / Fold change /veh WNT11 (11732464_a_at) / RFU C10orf10 (11716521_a_at) / Fold change /veh C10orf10 (11716521_a_at) / RFU C5orf56 (11738089_at) / Fold change /veh C5orf56 (11738089_at) / RFU CYB561 (11721691_x_at) / Fold change /veh CYB561 (11721691_x_at) / RFU ANKRD19P (11752326_a_at) / Fold change /veh ANKRD19P (11752326_a_at) / RFU OR2T12 /// OR2T33 /// OR2T8 (11738714_s_at) / Fold change /veh OR2T12 /// OR2T33 /// OR2T8 (11738714_s_at) / RFU VCAN (11748164_a_at) / Fold change /veh VCAN (11748164_a_at) / RFU JSRP1 (11732532_at) / Fold change /veh JSRP1 (11732532_at) / RFU KRTAP10-11 (11738290_x_at) / Fold change /veh KRTAP10-11 (11738290_x_at) / RFU MYO3A (11730013_a_at) / Fold change /veh MYO3A (11730013_a_at) / RFU EBF3 (11725865_a_at) / Fold change /veh EBF3 (11725865_a_at) / RFU CAMK2N1 (11719241_x_at) / Fold change /veh CAMK2N1 (11719241_x_at) / RFU C5orf56 (11738088_a_at) / Fold change /veh C5orf56 (11738088_a_at) / RFU OLFML3 (11715873_a_at) / Fold change /veh OLFML3 (11715873_a_at) / RFU LOC100653217 /// NTM (11731650_a_at) / Fold change /veh LOC100653217 /// NTM (11731650_a_at) / RFU MAPK11 (11762145_a_at) / Fold change /veh MAPK11 (11762145_a_at) / RFU FIZ1 (11724087_x_at) / Fold change /veh FIZ1 (11724087_x_at) / RFU OASL (11726364_x_at) / Fold change /veh OASL (11726364_x_at) / RFU SOX15 (11748057_x_at) / Fold change /veh SOX15 (11748057_x_at) / RFU CD79A (11719716_a_at) / Fold change /veh CD79A (11719716_a_at) / RFU HIST1H1D (11736915_at) / Fold change /veh HIST1H1D (11736915_at) / RFU CASKIN2 (11723855_a_at) / Fold change /veh CASKIN2 (11723855_a_at) / RFU LOC730098 (11760151_x_at) / Fold change /veh LOC730098 (11760151_x_at) / RFU OR4N2 (11742367_at) / Fold change /veh OR4N2 (11742367_at) / RFU PRRT2 (11749266_a_at) / Fold change /veh PRRT2 (11749266_a_at) / RFU SNX32 (11753110_a_at) / Fold change /veh SNX32 (11753110_a_at) / RFU CDHR5 (11726645_a_at) / Fold change /veh CDHR5 (11726645_a_at) / RFU RCAN1 (11760418_a_at) / Fold change /veh RCAN1 (11760418_a_at) / RFU FAM167A (11723789_a_at) / Fold change /veh FAM167A (11723789_a_at) / RFU FAM26E (11764081_at) / Fold change /veh FAM26E (11764081_at) / RFU ISYNA1 (11749810_s_at) / Fold change /veh ISYNA1 (11749810_s_at) / RFU ACY1 (11761880_at) / Fold change /veh ACY1 (11761880_at) / RFU 11764098_at / Fold change /veh 11764098_at / RFU SAMD14 (11745864_x_at) / Fold change /veh SAMD14 (11745864_x_at) / RFU NPB (11741838_a_at) / Fold change /veh NPB (11741838_a_at) / RFU TMPRSS6 (11731388_a_at) / Fold change /veh TMPRSS6 (11731388_a_at) / RFU KRTAP10-2 (11738614_at) / Fold change /veh KRTAP10-2 (11738614_at) / RFU ARHGAP8 /// PRR5-ARHGAP8 (11727945_x_at) / Fold change /veh ARHGAP8 /// PRR5-ARHGAP8 (11727945_x_at) / RFU KRTAP5-7 /// NADSYN1 (11734609_at) / Fold change /veh KRTAP5-7 /// NADSYN1 (11734609_at) / RFU RASL12 (11751679_a_at) / Fold change /veh RASL12 (11751679_a_at) / RFU CDKN2B (11736163_a_at) / Fold change /veh CDKN2B (11736163_a_at) / RFU PRF1 (11729649_at) / Fold change /veh PRF1 (11729649_at) / RFU, ZNF638 /// ZNF638-IT1 / Fold change vs veh, ZNF638 /// ZNF638-IT1 / RFU, PANK3 / Fold change vs veh, PANK3 / RFU, SH3YL1 / Fold change vs veh, SH3YL1 / RFU, ZEB2 / Fold change vs veh, ZEB2 / RFU, NRIP1 / Fold change vs veh, NRIP1 / RFU, PTTG1IP / Fold change vs veh, PTTG1IP / RFU, CAPN2 / Fold change vs veh, CAPN2 / RFU, MED14 / Fold change vs veh, MED14 / RFU, SNORA58 / Fold change vs veh, SNORA58 / RFU, C1orf63 / Fold change vs veh, C1orf63 / RFU, LRRFIP1 / Fold change vs veh, LRRFIP1 / RFU, NDUFAF7 / Fold change vs veh, NDUFAF7 / RFU, SLC12A2 / Fold change vs veh, SLC12A2 / RFU, IBTK / Fold change vs veh, IBTK / RFU, ESF1 / Fold change vs veh, ESF1 / Fold change vs veh, TMEM50B / RFU, TAOK1 / Fold change vs veh, TAOK1 / RFU, ACBD3 / Fold change vs veh, ACBD3 / RFU, TMA16 / Fold change vs veh, TMA16 / RFU, RWDD3 / Fold change vs veh, RWDD3 / RFU, BCAT1 / Fold change vs veh, BCAT1 / RFU, EDEM3 / Fold change vs veh, EDEM3 / RFU, TMEM33 / Fold change vs veh, TMEM33 / RFU, WDR75 / Fold change vs veh, WDR75 / RFU, AHCTF1 / Fold change vs veh, AHCTF1 / RFU, TFRC / Fold change vs veh, TFRC / RFU, ZDHHC17 / Fold change vs veh, ZDHHC17 / RFU, NOM1 / Fold change vs veh, NOM1 / RFU, ARL8B / Fold change vs veh, ARL8B / RFU, ZBTB11 / Fold change vs veh, ZBTB11 / RFU, TAMM41 / Fold change vs veh, TAMM41 / RFU, KIAA1704 /// LOC100996395 / Fold change vs veh, KIAA1704 /// LOC100996395 / RFU, ING1 / Fold change vs veh, ING1 / RFU, TRMT61B / Fold change vs veh, TRMT61B / RFU, FUBP3 / Fold change vs veh, FUBP3 / RFU, TP53 / Fold change vs veh, TP53 / RFU, TNKS2 / Fold change vs veh, TNKS2 / RFU, ZFP14 / Fold change vs veh, ZFP14 / RFU, ACTR2 / Fold change vs veh, ACTR2 / RFU, PPP3R1 / Fold change vs veh, PPP3R1 / RFU, PIK3R1 / Fold change vs veh, PIK3R1 / RFU, HNRNPA1 / Fold change vs veh, HNRNPA1 / RFU, RNF170 / Fold change vs veh, RNF170 / RFU, ZNF28 / Fold change vs veh, ZNF28 / RFU, RNGTT / Fold change vs veh, RNGTT / RFU, OGT / Fold change vs veh, OGT / RFU, BRD1 / Fold change vs veh, BRD1 / RFU, MARS / Fold change vs veh, MARS / RFU, ZNF655 / Fold change vs veh, ZNF655 / RFU, FAHD1 / Fold change vs veh, FAHD1 / RFU, BDP1 / Fold change vs veh, BDP1 / RFU, LRRCC1 / Fold change vs veh, LRRCC1 / RFU, ARID1A / Fold change vs veh, ARID1A / RFU, ZNF146 / Fold change vs veh, ZNF146 / RFU, ZNF330 / Fold change vs veh, ZNF330 / RFU, GPN3 / Fold change vs veh, GPN3 / RFU, C9orf123 / Fold change vs veh, C9orf123 / RFU, N4BP2L2 / Fold change vs veh, N4BP2L2 / RFU, ARFIP1 / Fold change vs veh, ARFIP1 / RFU, FAM179B / Fold change vs veh, FAM179B / RFU, BCL10 / Fold change vs veh, BCL10 / RFU, UHRF1BP1L / Fold change vs veh, UHRF1BP1L / RFU, BET1 / Fold change vs veh, BET1 / RFU, CNOT2 / Fold change vs veh, CNOT2 / RFU, ZNF268 / Fold change vs veh, ZNF268 / Fold change vs veh, ZNF507 / RFU, DGCR2 / Fold change vs veh, DGCR2 / RFU, WDSUB1 / Fold change vs veh, WDSUB1 / Fold change vs veh, HSP90B1 /// MIR3652 / RFU, ADSS / Fold change vs veh, ADSS / RFU, GK / Fold change vs veh, GK / RFU, ZNF148 / Fold change vs veh, ZNF148 / RFU, TAF9 / Fold change vs veh, TAF9 / RFU, SLC1A5 / Fold change vs veh, SLC1A5 / RFU, SLMO2 / Fold change vs veh, SLMO2 / RFU, ABCC4 / Fold change vs veh, ABCC4 / RFU, LOC101060439 /// RAP1B / Fold change vs veh, LOC101060439 /// RAP1B / RFU, RFX7 / Fold change vs veh, RFX7 / RFU, GTPBP10 / Fold change vs veh, GTPBP10 / RFU, CNEP1R1 / Fold change vs veh, CNEP1R1 / RFU, BIVM-ERCC5 /// ERCC5 / Fold change vs veh, BIVM-ERCC5 /// ERCC5 / RFU, ILF3 / Fold change vs veh, ILF3 / RFU 11762660_at / Fold change /veh 11762660_at / RFU VCAN (11757783_s_at) / Fold change /veh VCAN (11757783_s_at) / RFU DDX43 (11728927_at) / Fold change /veh DDX43 (11728927_at) / RFU KRT8 (11758188_x_at) / Fold change /veh KRT8 (11758188_x_at) / RFU NKD1 (11759106_at) / Fold change /veh NKD1 (11759106_at) / RFU SRD5A1 (11742802_a_at) / Fold change /veh SRD5A1 (11742802_a_at) / RFU TPSAB1 /// TPSB2 (11721975_s_at) / Fold change /veh TPSAB1 /// TPSB2 (11721975_s_at) / RFU GSTM3 (11746129_a_at) / Fold change /veh GSTM3 (11746129_a_at) / RFU IL23R (11737362_x_at) / Fold change /veh IL23R (11737362_x_at) / RFU TMEM51 (11727254_a_at) / Fold change /veh TMEM51 (11727254_a_at) / RFU PIWIL2 (11732686_x_at) / Fold change /veh PIWIL2 (11732686_x_at) / RFU ORM1 (11744905_x_at) / Fold change /veh ORM1 (11744905_x_at) / RFU CCDC152 (11743942_at) / Fold change /veh CCDC152 (11743942_at) / RFU ECM1 (11717891_a_at) / Fold change /veh ECM1 (11717891_a_at) / RFU IL23R (11748794_a_at) / Fold change /veh IL23R (11748794_a_at) / RFU TNFAIP8L3 (11732012_x_at) / Fold change /veh TNFAIP8L3 (11732012_x_at) / RFU MBOAT4 (11741988_at) / Fold change /veh MBOAT4 (11741988_at) / RFU 11764193_at / Fold change /veh 11764193_at / RFU TMEM53 (11763286_at) / Fold change /veh TMEM53 (11763286_at) / RFU MAGEB2 (11727129_at) / Fold change /veh MAGEB2 (11727129_at) / RFU TMEM200A (11744735_a_at) / Fold change /veh TMEM200A (11744735_a_at) / RFU CCDC152 (11751479_a_at) / Fold change /veh CCDC152 (11751479_a_at) / RFU FAM211A (11726209_a_at) / Fold change /veh FAM211A (11726209_a_at) / RFU RGS16 (11746705_a_at) / Fold change /veh RGS16 (11746705_a_at) / RFU VCAN (11755009_s_at) / Fold change /veh VCAN (11755009_s_at) / RFU RHOB (11743442_s_at) / Fold change /veh RHOB (11743442_s_at) / RFU RGS16 (11720943_a_at) / Fold change /veh RGS16 (11720943_a_at) / RFU RGS16 (11720944_at) / Fold change /veh RGS16 (11720944_at) / RFU, VPS4B / Fold change vs veh, VPS4B / RFU, CREB1 / Fold change vs veh, CREB1 / RFU, DNAJC13 / Fold change vs veh, DNAJC13 / RFU, GNAQ / Fold change vs veh, GNAQ / RFU, CDK5R1 / Fold change vs veh, CDK5R1 / RFU, ZRANB3 / Fold change vs veh, ZRANB3 / RFU, CUL4A / Fold change vs veh, CUL4A / RFU, CCNY / Fold change vs veh, CCNY / RFU, UFL1 / Fold change vs veh, UFL1 / RFU, COG3 / Fold change vs veh, COG3 / RFU, DIAPH2 / Fold change vs veh, DIAPH2 / RFU, SKA2 / Fold change vs veh, SKA2 / RFU, AFF3 / Fold change vs veh, AFF3 / RFU, LMF1 / Fold change vs veh, LMF1 / RFU, IPO11 / Fold change vs veh, IPO11 / RFU, DFFB / Fold change vs veh, DFFB / RFU, FOXP1 / Fold change vs veh, FOXP1 / RFU, CARD8 / Fold change vs veh, CARD8 / RFU, STRN3 / Fold change vs veh, STRN3 / RFU, ADK / Fold change vs veh, ADK / RFU, RASSF2 / Fold change vs veh, RASSF2 / RFU, WIPF1 / Fold change vs veh, WIPF1 / RFU, LARP1B / Fold change vs veh, LARP1B / RFU, RASA1 / Fold change vs veh, RASA1 / RFU, RB1 / Fold change vs veh, RB1 / RFU, PPFIA1 / Fold change vs veh, PPFIA1 / RFU, MAT2A / Fold change vs veh, MAT2A / RFU, CCT5 / Fold change vs veh, CCT5 / RFU, WDR92 / Fold change vs veh, WDR92 / RFU, CUX1 / Fold change vs veh, CUX1 / RFU, TTC7A / Fold change vs veh, TTC7A / RFU, TMEM135 / Fold change vs veh, TMEM135 / RFU, DEPTOR / Fold change vs veh, DEPTOR / RFU, CPM / Fold change vs veh, CPM / RFU, DNAJB6 / Fold change vs veh, DNAJB6 / RFU, CACNA2D3 / Fold change vs veh, CACNA2D3 / RFU, DTX4 / Fold change vs veh, DTX4 / RFU, TFCP2 / Fold change vs veh, TFCP2 / RFU, GMCL1 /// GMCL1P1 / Fold change vs veh, GMCL1 /// GMCL1P1 / RFU, AEBP2 / Fold change vs veh, AEBP2 / RFU, SNHG1 /// SNORD22 /// SNORD25 /// SNORD26 /// SNORD27 /// SNORD28 /// SNORD29 /// SNORD31 / Fold change vs veh, SNHG1 /// SNORD22 /// SNORD25 /// SNORD26 /// SNORD27 /// SNORD28 /// SNORD29 /// SNORD31 / Fold change (Aza/veh), C12orf56 (ProbeSet 11735607_a_at) / Fold change (ACY-1035/veh), C12orf56 (ProbeSet 11735607_a_at) / Fold change (Aza/veh), FGFR1OP (ProbeSet 11751329_s_at) / Fold change (ACY-1035/veh), FGFR1OP (ProbeSet 11751329_s_at) / Fold change (Aza/veh), VPS36 (ProbeSet 11739960_a_at) / Fold change (ACY-1035/veh), VPS36 (ProbeSet 11739960_a_at) / RFU SYPL1 (11715823_x_at) / Fold change /veh SYPL1 (11715823_x_at) / RFU IGFBP7 (11715501_s_at) / Fold change /veh IGFBP7 (11715501_s_at) / RFU REEP3 (11722064_at) / Fold change /veh REEP3 (11722064_at) / RFU IGLL1 (11728026_x_at) / Fold change /veh IGLL1 (11728026_x_at): dose or concentration left out as unconfirmed
# Conditions: ProbeSet 11730501_a_at; LIST D
smiles,measurement,value
Nc1ncn([C@@H]2O[C@H](CO)[C@@H](O)[C@H]2O)c(=O)n1 [azacitidine],"RFU, CACNA2D3",122.12 RFU
